From PubChem BioAssay AID330 (DTP/NCI, 2004)
Inconclusive results and toxic doses are left out.

System: P388 leukemia ip, CD2F1 mice, survival T/C
Assay: NCI In Vivo Anticancer Drug Screen. Data for tumor model P388 Leukemia (intraperitoneal) in CD2F1 (CDF1) mice
Conditions: endpoint: median survival time, higher = longer survival
Method in brief: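 Mice carrying the transplanted tumor received test compound or vehicle. Survival was recorded in each group, and the value is the treated-group measurement divided by that of the vehicle-treated control group.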

In the case of `O=C1NC(c2cccc3ccccc23)Nc2ccccc21` (stereo unspecified), the T/C (dose: 64.0 mg/kg/injection, schedule: Q03HX008 (oral), vehicle: Klucel (hydroxypropylcellulose) (HPC)) was 108 % of control, the T/C (dose: 64.0 mg/kg/injection, schedule: Q03HX016 (oral), vehicle: Klucel (hydroxypropylcellulose) (HPC)) was 116 % of control and the T/C (dose: 64.0 mg/kg/injection, schedule: Q03HX024 (oral), vehicle: Klucel (hydroxypropylcellulose) (HPC)) was 119 % of control. For the same compound, the T/C (dose: 64.0 mg/kg/injection, schedule: Q04DX003 (ip), vehicle: Klucel (hydroxypropylcellulose) (HPC)) was 118 % of control, the T/C (dose: 64.0 mg/kg/injection, schedule: Q04DX003 (ip), vehicle: other) was 91 % of control and the T/C (dose: 64.0 mg/kg/injection, schedule: Q04DX003 (oral), vehicle: Klucel (hydroxypropylcellulose) (HPC)) was 100 % of control. For the same compound, the T/C (dose: 64.0 mg/kg/injection, schedule: Q04DX003 (oral), vehicle: other) was 117 % of control, the T/C (dose: 64.0 mg/kg/injection, schedule: Q04DX003 (sc), vehicle: Klucel (hydroxypropylcellulose) (HPC)) was 113 % of control and the T/C (dose: 64.0 mg/kg/injection, schedule: Q04DX003 (sc), vehicle: other) was 107 % of control. The T/C (dose: 64.0 mg/kg/injection, schedule: Q08DX002 (ip), vehicle: Klucel (hydroxypropylcellulose) (HPC)) was 118 % of control, the T/C (dose: 64.0 mg/kg/injection, schedule: Q08DX002 (ip), vehicle: other) was 100 % of control and the T/C (dose: 64.0 mg/kg/injection, schedule: Q08DX002 (oral), vehicle: Klucel (hydroxypropylcellulose) (HPC)) was 102 % of control. The T/C (dose: 64.0 mg/kg/injection, schedule: Q08DX002 (oral), vehicle: other) was 104 % of control, the T/C (dose: 128.0 mg/kg/injection, schedule: Q01DX001 (ip), vehicle: Klucel (hydroxypropylcellulose) (HPC)) was 121 % of control and the T/C (dose: 128.0 mg/kg/injection, schedule: Q01DX001 (ip), vehicle: other) was 104 % of control. The T/C (dose: 128.0 mg/kg/injection, schedule: Q01DX001 (oral), vehicle: Klucel (hydroxypropylcellulose) (HPC)) was 99 % of control, the T/C (dose: 128.0 mg/kg/injection, schedule: Q01DX001 (oral), vehicle: other) was 108 % of control and the T/C (dose: 128.0 mg/kg/injection, schedule: Q01DX009 (oral), vehicle: Klucel (hydroxypropylcellulose) (HPC)) was 109 % of control. For the same compound, the T/C (dose: 128.0 mg/kg/injection, schedule: Q03HX008 (oral), vehicle: Klucel (hydroxypropylcellulose) (HPC)) was 110 % of control, the T/C (dose: 128.0 mg/kg/injection, schedule: Q03HX016 (oral), vehicle: Klucel (hydroxypropylcellulose) (HPC)) was 122 % of control and the T/C (dose: 128.0 mg/kg/injection, schedule: Q04DX003 (ip), vehicle: other) was 109 % of control. For the same compound, the T/C (dose: 128.0 mg/kg/injection, schedule: Q04DX003 (oral), vehicle: Klucel (hydroxypropylcellulose) (HPC)) was 105 % of control, the T/C (dose: 128.0 mg/kg/injection, schedule: Q04DX003 (oral), vehicle: other) was 122 % of control and the T/C (dose: 128.0 mg/kg/injection, schedule: Q04DX003 (sc), vehicle: Klucel (hydroxypropylcellulose) (HPC)) was 115 % of control. For the same compound, the T/C (dose: 128.0 mg/kg/injection, schedule: Q04DX003 (sc), vehicle: other) was 114 % of control, the T/C (dose: 128.0 mg/kg/injection, schedule: Q08DX002 (ip), vehicle: other) was 94 % of control and the T/C (dose: 128.0 mg/kg/injection, schedule: Q08DX002 (oral), vehicle: Klucel (hydroxypropylcellulose) (HPC)) was 106 % of control. For the same compound, the T/C (dose: 256.0 mg/kg/injection, schedule: Q01DX001 (ip), vehicle: other) was 105 % of control, the T/C (dose: 256.0 mg/kg/injection, schedule: Q01DX001 (oral), vehicle: Klucel (hydroxypropylcellulose) (HPC)) was 101 % of control and the T/C (dose: 256.0 mg/kg/injection, schedule: Q01DX009 (oral), vehicle: Klucel (hydroxypropylcellulose) (HPC)) was 116 % of control. The T/C (dose: 256.0 mg/kg/injection, schedule: Q01DX009 (sc), vehicle: Klucel (hydroxypropylcellulose) (HPC)) was 91 % of control, the T/C (dose: 256.0 mg/kg/injection, schedule: Q04DX003 (ip), vehicle: Klucel (hydroxypropylcellulose) (HPC)) was 168 % of control and the T/C (dose: 256.0 mg/kg/injection, schedule: Q04DX003 (ip), vehicle: other) was 109 % of control. For the same compound, the T/C (dose: 256.0 mg/kg/injection, schedule: Q04DX003 (oral), vehicle: Klucel (hydroxypropylcellulose) (HPC)) was 107 % of control, the T/C (dose: 256.0 mg/kg/injection, schedule: Q04DX003 (oral), vehicle: other) was 95 % of control and the T/C (dose: 256.0 mg/kg/injection, schedule: Q04DX003 (sc), vehicle: Klucel (hydroxypropylcellulose) (HPC)) was 122 % of control. For the same compound, the T/C (dose: 256.0 mg/kg/injection, schedule: Q08DX002 (ip), vehicle: other) was 108 % of control, the T/C (dose: 256.0 mg/kg/injection, schedule: Q08DX002 (oral), vehicle: Klucel (hydroxypropylcellulose) (HPC)) was 106 % of control and the T/C (dose: 512.0 mg/kg/injection, schedule: Q01DX001 (oral), vehicle: Klucel (hydroxypropylcellulose) (HPC)) was 102 % of control. For the same compound, the T/C (dose: 512.0 mg/kg/injection, schedule: Q04DX003 (oral), vehicle: Klucel (hydroxypropylcellulose) (HPC)) was 116 % of control, the T/C (dose: 512.0 mg/kg/injection, schedule: Q08DX002 (ip), vehicle: Klucel (hydroxypropylcellulose) (HPC)) was 185 % of control and the T/C (dose: 512.0 mg/kg/injection, schedule: Q08DX002 (oral), vehicle: Klucel (hydroxypropylcellulose) (HPC)) was 108 % of control. The T/C (dose: 1024.0 mg/kg/injection, schedule: Q01DX001 (oral), vehicle: Klucel (hydroxypropylcellulose) (HPC)) was 101 % of control, the T/C (dose: 1024.0 mg/kg/injection, schedule: Q04DX003 (oral), vehicle: Klucel (hydroxypropylcellulose) (HPC)) was 106 % of control and the T/C (dose: 1024.0 mg/kg/injection, schedule: Q04DX003 (sc), vehicle: Klucel (hydroxypropylcellulose) (HPC)) was 123 % of control. The T/C (dose: 1024.0 mg/kg/injection, schedule: Q08DX002 (oral), vehicle: Klucel (hydroxypropylcellulose) (HPC)) was 115 % of control.
